Here are results for 1 compound from PMC6934184, “Selective DNA-PKcs inhibition extends the therapeutic index of localized radiotherapy and chemotherapy” (The Journal of Clinical Investigation, 2019).

SMILES strings stand for the structures.

This assay addresses T1, ACVR1 (ALK2) R206H (Homo sapiens, UniProt Q04771, R206H).
T1 construct: purchased Thermo Fisher Scientific (Life Technologies) SelectScreen
As to the kind of experiment: SelectScreen LanthaScreen. Particulars: read-out: % displacement. In kind it is binding. In a few lines: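 SelectScreen broad panel; activity (Z'LYTE, Adapta) plus binding formats. ATP: Km app for CSF1R Z'LYTE; 10 for CAMK1 Adapta. Readout = % per kinase.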
For orientation: Time-resolved FRET reads energy transfer from a long-lived donor to a nearby acceptor.

T1 sequence (Q04771 21-509 R206H): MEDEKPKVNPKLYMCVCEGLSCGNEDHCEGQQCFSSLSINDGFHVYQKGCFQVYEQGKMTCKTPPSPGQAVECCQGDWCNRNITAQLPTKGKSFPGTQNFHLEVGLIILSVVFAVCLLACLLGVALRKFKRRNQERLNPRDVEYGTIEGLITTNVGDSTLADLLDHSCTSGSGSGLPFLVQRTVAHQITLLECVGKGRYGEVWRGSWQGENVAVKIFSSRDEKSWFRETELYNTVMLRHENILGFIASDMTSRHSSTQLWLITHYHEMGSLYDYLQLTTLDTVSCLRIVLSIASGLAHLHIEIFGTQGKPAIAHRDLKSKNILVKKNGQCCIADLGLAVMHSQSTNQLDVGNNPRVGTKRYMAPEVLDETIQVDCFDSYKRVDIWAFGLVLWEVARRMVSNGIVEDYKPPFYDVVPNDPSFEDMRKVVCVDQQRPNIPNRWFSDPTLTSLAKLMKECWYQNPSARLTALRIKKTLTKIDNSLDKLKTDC

In the case of `CN(C(=O)CN1CCOCC1)c1ccc2sc3c(-c4cccc5c(=O)cc(N6CC7CCC(C6)O7)oc45)cccc3c2c1` [NU5455], the inhibition at 1 µM is 12.6%.
